# In patent US20160120831A1, “INCREASE OF PROTEIN SYNTHESIS AMELIORATES SYNAPTOPATHY-RELATED NEUROLOGICAL DISORDERS” (Academia Sinica, priority 2014, published 2016):
# Assays:
# SOD1-G93A mice = assay: Animal model of amyotrophic lateral sclerosis (ALS), survival; assay type: in vivo, mouse; conditions: leucine supplement water 80 mg/day from 120 days old
# Method: To examine the effect of leucine on ALS, 120 days old mice (wild-type or SOD1-G93A mice) were provided with normal water or leucine supplement water (80 mg/day) until animal died.
# SOD1-G93A mouse is an animal model widely used in the art for ALS study. In this example, the SOD1-G93A transgenic mice were used to evaluate the effect of leucine on ALS.
# Nf1^+/- mice [1] = assay: Golgi staining of mouse brains for dendritic spine density; assay type: in vivo; conditions: Nf1^+/- mice after taking leucine solution
# Nf1^+/- mice [2] = assay: Contextual fear conditioning; assay type: in vivo, mouse
# Method: To examine the effect of leucine on contextual fear memory, mice (wild-type or Nf1^+/− mice) were provided with normal water or leucine supplement water (0.9-3.6 g/Kg) for 7 days prior to testing, which was continued through the entire behavioral task. Mice were subjected to contextual fear conditioning, which was carried out for 6 days with one trial per day. For the first 5 days, mice were placed into the conditioning chamber for 60 sec, then a single foot shock was performed (0.4 mA intensity for 2 sec). After the foot shock, mice were left in the chamber for another 120 sec before returning to their home cage. On the 6th day, mice were placed into the conditioning chamber for 180 sec without foot shock. Freezing responses during the first 10-60 sec of each trial were videotaped and measured using the FreezeScan 2.0 system (CleverSys). Nf1^+/− mice were used to study the effect of leucine on learning and memory, in which the effect was assessed by contextual fear conditioning as described in Materials and Methods. Briefly, wild-type or Nf1^+/− mice were administered water or leucine, as a supplement in water, for 7 days and then subjected to contextual fear conditioning (FIG. 4A). There was no difference in drinking preference for water or leucine solution between WT and Nf1^+/− mice, nor was there difference in weight gain between the two mice (FIG. 4B).
# ATL-1^R95G = assay: Dendritic spine density of neurons expressing wild-type or mutant ATL1; assay type: cell-based, mouse; conditions: mutant ATL1 neurons; 2.5 mM or 5 mM leucine, 3 days; P<0.001
# Method: For primary neuronal culture, pregnant mice were sacrificed by subjecting to CO2 inhalation, and the fetal pups were isolated and sacrificed by decapitation. Then, cortical neurons were dissociated from the brains of embryonic mice of 18 days. The obtained neurons were cultured in Neurobasal medium, supplemented with 2% B27 supplement, 0.5 mM glutamine, and 12.5 μM glutamate in the density of 260,000 cells/cm^2. The cells were kept in a 5% CO2-humidified chamber at 37° C. Mouse Atl1 was amplified by PCR with a primer set respectively having nucleotide sequences of SEQ ID NOs: 5 and 6. The amplified products were subcloned into the Gw1-Myc2b vector. The […] mutant was generated by site directed mutagenesis with a primer set respectively having nucleotide sequences of SEQ ID NOs: 7 and 8. Images of neurons were recorded with a confocal microscope (LSM700, Zeiss) equipped with a Plan-Apochromat 63×NA 1.4 oil objective lens (Zeiss) and captured with Zen acquisition and analysis software (Zeiss) at 20-22° C. as a Z-series of 5-12 sections spaced 0.6-0.8 μm apart. The Z-series was then projected into single images. […] To analyze dendritic spine density, the spine number of each dendrite fragment about 20 μm in length, which started from a point 20 μm away from the soma, was manually counted using Image J software. […]
# VCP^R95G-neurons = assay: Azidohomoalanine (AHA) labelling of protein synthesis in neurons transfected with wild-type or mutant VCP; assay type: cell-based, mouse; conditions: leucine for 3 days, AHA label 1 hour
# Method: FIG. 1A are confocal microscopy images of neurons that are respectively transfected with specified plasmids respectively expressing wild-type (WT) VCP and mutant VCP, and treated with 2.5 mM leucine for three days and labeled with azidohomoalanine (AHA) for 1 hour according to Example 1 of the present disclosure; the transfected neurons are either pointed by arrows or outlined; scale bar presents 20 μm; FIG. 1B is a histogram depicting the relative AHA intensity of neurons that were respectively transfected with specified plasmids, and treated with different concentrations of leucine for three days and labeled with AHA for 1 hour according to Example 1 of the present disclosure; data from three independent experiments are presented as mean plus standard error of mean (SEM); ns, no significance; ***, P<0.001; For primary neuronal culture, pregnant mice were sacrificed by subjecting to CO2 inhalation, and the fetal pups were isolated and sacrificed by decapitation. Then, cortical neurons were dissociated from the brains of embryonic mice of 18 days. The obtained neurons were cultured in Neurobasal medium, supplemented with 2% B27 supplement, 0.5 mM glutamine, and 12.5 μM glutamate in the density of 260,000 cells/cm^2. The cells were kept in a 5% CO2-humidified chamber at 37° C. […]
# Nf1^+/- neurons = assay: Dendritic spine density of wild-type or Nf1^+/- neurons; assay type: cell-based, mouse
# Method: For primary neuronal culture, pregnant mice were sacrificed by subjecting to CO2 inhalation, and the fetal pups were isolated and sacrificed by decapitation. Then, cortical neurons were dissociated from the brains of embryonic mice of 18 days. The obtained neurons were cultured in Neurobasal medium, supplemented with 2% B27 supplement, 0.5 mM glutamine, and 12.5 μM glutamate in the density of 260,000 cells/cm^2. The cells were kept in a 5% CO2-humidified chamber at 37° C. Images of neurons were recorded with a confocal microscope (LSM700, Zeiss) equipped with a Plan-Apochromat 63×NA 1.4 oil objective lens (Zeiss) and captured with Zen acquisition and analysis software (Zeiss) at 20-22° C. as a Z-series of 5-12 sections spaced 0.6-0.8 μm apart. The Z-series was then projected into single images. The images were processed with Photoshop (Adobe), with minimal adjustment of brightness or contrast applied to the whole images. To analyze dendritic spine density, the spine number of each dendrite fragment about 20 μm in length, which started from a point 20 μm away from the soma, was manually counted using Image J software. As dendritic spine formation is highly sensitive to culture conditions, each experiment was repeated using the same lot of culture medium. […] To minimize the effects of bias, some of the critical experiments were performed blind by relabeling the samples with the assistance of other lab members.
# [3] = tested on: VCP^R95G-expressing neurons; assay: Dendritic spine density of neurons transfected with VCP^WT or VCP^R95G plasmids; assay type: cell-based, mouse
# Method: For primary neuronal culture, pregnant mice were sacrificed by subjecting to CO2 inhalation, and the fetal pups were isolated and sacrificed by decapitation. Then, cortical neurons were dissociated from the brains of embryonic mice of 18 days. The obtained neurons were cultured in Neurobasal medium, supplemented with 2% B27 supplement, 0.5 mM glutamine, and 12.5 μM glutamate in the density of 260,000 cells/cm^2. The cells were kept in a 5% CO2-humidified chamber at 37° C. The wild-type VCP gene was amplified by PCR using a forward primer having a nucleotide sequence of SEQ ID NO: 1, and a reverse primer having a nucleotide sequence of SEQ ID NO: 2. The amplified DNA segment was subsequently constructed in to GW1-Myc plasmid. To generate the […] mutation, a pair of primers respectively having nucleotide sequences of SEQ ID NOs: 3 and 4 were used in site-directed mutagenesis with wild-type VCP construct as a template. […] Images of neurons were recorded with a confocal microscope (LSM700, Zeiss) equipped with a Plan-Apochromat 63×NA 1.4 oil objective lens (Zeiss) and captured with Zen acquisition and analysis software (Zeiss) at 20-22° C. as a Z-series of 5-12 sections spaced 0.6-0.8 μm apart. […] To analyze dendritic spine density, the spine number of each dendrite fragment about 20 μm in length, which started from a point 20 μm away from the soma, was manually counted using Image J software. […]
smiles,measurement,setting,value
CC(C)C[C@H](N)C(=O)O [leucine],percentage of survival,SOD1-G93A mice,significantly increased the percentage of survival
same,mean survival time,SOD1-G93A mice; control mice 147.3±3.84 days,172.0 ± 3.96 days
same,dendritic spine density in brain,Nf1^+/- mice [1],increase in dendritic spine density
same,freezing responses versus WT mice,Nf1^+/- mice [2]; Nf1^+/- mice after leucine administration,comparable to those of WT mice
same,associative memory (freezing response),"Nf1^+/- mice [2]; Nf1^+/- mice, leucine supplement water 0.9-3.6 g/Kg, oral",significantly increase the associative memory
same,fear memory (freezing response),"Nf1^+/- mice [2]; wild-type mice, leucine supplement water 0.9-3.6 g/Kg, oral",did not further enhance the fear memory
same,dendritic spine number,ATL-1^R95G,significantly increased the dendritic spine number
same,AHA intensity,VCP^R95G-neurons,dose-dependently increased the AHA intensity
same,protrusion number versus wild-type neurons,"Nf1^+/- neurons; Nf1^+/- neurons, 2.5 mM leucine",equal to that of wild-type neurons
same,dendritic spine formation / dendritic spine number,"Nf1^+/- neurons; Nf1^+/- neurons, leucine for 3 days",significantly ameliorated the defect in dendritic spine formation
same,number of protrusions,"Nf1^+/- neurons; wild-type dendrite fragment, leucine for 3 days",did not further raise the number of protrusions
same,protrusion number of dendrite fragment,"[3]; VCP^R95G-dendrite fragment, leucine 2 mM (P<0.01) and 2.5 mM (P<0.001) vs basal, 3 days",significantly increased the protrusion number
same,protrusion number of dendrite fragment,"[3]; VCP^WT-dendrite fragment, leucine for 3 days",did not produce obvious effect
